Experimental data: ChEMBL document CHEMBL1909046, “DrugMatrix in vitro pharmacology data”

How the values were obtained:
[1] = DRUGMATRIX: beta-Lactamase enzyme inhibition (substrate: Nitrocefin); set-up: species or system Bacillus cereus; conditions: Not Active = under 50% inhibition at 10 µM
[2] = biological target: T1, Cholecystokinin receptor type A (Homo sapiens, UniProt P32238); assay type: cell membranes, Membrane; conditions: 1321-n1; note: in other assays of this panel Not Active means under 50% inhibition at 10 µM
T1 sequence (P32238 whole entry): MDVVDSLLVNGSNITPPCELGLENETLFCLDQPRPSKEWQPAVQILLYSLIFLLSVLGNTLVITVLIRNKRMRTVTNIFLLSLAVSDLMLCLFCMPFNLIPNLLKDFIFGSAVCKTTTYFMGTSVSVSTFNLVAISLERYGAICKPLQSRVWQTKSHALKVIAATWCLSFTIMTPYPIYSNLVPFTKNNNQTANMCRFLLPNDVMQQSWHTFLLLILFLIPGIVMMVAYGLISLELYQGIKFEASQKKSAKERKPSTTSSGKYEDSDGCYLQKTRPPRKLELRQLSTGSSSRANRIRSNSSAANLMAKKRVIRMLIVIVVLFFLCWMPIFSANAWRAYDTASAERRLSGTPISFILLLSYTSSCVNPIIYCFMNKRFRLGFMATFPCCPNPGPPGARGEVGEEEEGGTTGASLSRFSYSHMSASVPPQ

[3] = DRUGMATRIX: GABAA, Chloride Channel, TBOB radioligand binding (ligand: [3H] TBOB); assay type: cell membranes, Rattus norvegicus, Wistar, Cerebral cortex, Membrane; conditions: Not Active = under 50% inhibition at 10 µM
Melanocortin receptor 3 = Melanocortin receptor 3 (Homo sapiens, UniProt P41968); assay type: cell membranes, Membrane; conditions: hek293; note: in other assays of this panel Not Active means under 50% inhibition at 10 µM
[4] = biological target: Delta-type opioid receptor (Homo sapiens, UniProt P41143); assay type: cell membranes, HEK293, Membrane; conditions: hek293; note: in other assays of this panel Not Active means under 50% inhibition at 10 µM
[5] = biological target: cGMP-specific 3',5'-cyclic phosphodiesterase (Homo sapiens, UniProt O76074); assay: DRUGMATRIX: Phosphodiesterase PDE5 enzyme inhibition (substrate: [3H]cGMP + cGMP); assay type: tissue-based, Platelet; conditions: platelet; Not Active = under 50% inhibition at 10 µM
Progesterone receptor = biological target: T2, Progesterone receptor (Bos taurus, UniProt Q690N0); assay: DRUGMATRIX: Progesterone radioligand binding (ligand: [3H] R-5020); assay type: tissue-based, Uterus; conditions: Not Active = under 50% inhibition at 10 µM
T2 sequence (Q690N0 whole entry): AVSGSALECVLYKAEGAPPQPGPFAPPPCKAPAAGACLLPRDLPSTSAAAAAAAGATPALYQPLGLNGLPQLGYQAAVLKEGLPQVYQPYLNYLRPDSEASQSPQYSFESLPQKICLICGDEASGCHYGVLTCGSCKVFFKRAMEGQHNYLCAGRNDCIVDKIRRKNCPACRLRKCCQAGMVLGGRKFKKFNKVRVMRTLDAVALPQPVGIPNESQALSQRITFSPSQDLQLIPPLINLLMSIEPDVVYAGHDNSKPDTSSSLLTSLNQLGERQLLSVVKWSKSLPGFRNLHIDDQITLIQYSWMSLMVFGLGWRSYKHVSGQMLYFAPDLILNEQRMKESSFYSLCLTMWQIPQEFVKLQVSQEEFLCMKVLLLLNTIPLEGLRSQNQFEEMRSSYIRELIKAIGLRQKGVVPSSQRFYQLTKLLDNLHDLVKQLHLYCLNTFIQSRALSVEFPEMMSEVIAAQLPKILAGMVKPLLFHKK

Sequence of Melanocortin receptor 3 (P41968 whole entry): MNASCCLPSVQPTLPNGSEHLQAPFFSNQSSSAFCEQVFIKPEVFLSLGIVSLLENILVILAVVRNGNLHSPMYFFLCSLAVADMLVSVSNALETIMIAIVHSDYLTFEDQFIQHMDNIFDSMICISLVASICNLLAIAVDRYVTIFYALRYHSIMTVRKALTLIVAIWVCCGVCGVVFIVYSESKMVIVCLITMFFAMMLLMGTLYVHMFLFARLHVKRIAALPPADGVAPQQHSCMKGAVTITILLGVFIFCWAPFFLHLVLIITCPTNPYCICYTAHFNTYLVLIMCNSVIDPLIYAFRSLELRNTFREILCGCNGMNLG
Sequence of Delta-type opioid receptor (P41143 whole entry): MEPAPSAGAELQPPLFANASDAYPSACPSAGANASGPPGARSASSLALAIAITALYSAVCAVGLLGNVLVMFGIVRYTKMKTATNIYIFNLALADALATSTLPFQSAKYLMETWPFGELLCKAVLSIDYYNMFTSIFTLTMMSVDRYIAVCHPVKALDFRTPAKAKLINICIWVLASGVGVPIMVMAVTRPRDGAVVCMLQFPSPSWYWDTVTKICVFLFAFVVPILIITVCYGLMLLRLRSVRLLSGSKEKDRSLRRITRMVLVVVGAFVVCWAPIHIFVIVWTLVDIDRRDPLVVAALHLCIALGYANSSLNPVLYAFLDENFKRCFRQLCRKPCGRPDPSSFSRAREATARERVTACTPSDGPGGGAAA

C[C@@H]1C/C=C/C=C/C=C/C=C/[C@H](O[C@@H]2O[C@H](C)[C@@H](O)[C@H](N)[C@@H]2O)C[C@@H]2O[C@](O)(C[C@@H](O)C[C@H]3O[C@@H]3/C=C/C(=O)O1)C[C@H](O)[C@H]2C(=O)O [NATAMYCIN]
Not Active: IC50 [1] | Ki [1] | IC50 [2] | IC50 [3] | Ki [3] | IC50 (Melanocortin receptor 3) | IC50 [4] | IC50 [5] | IC50 (Progesterone receptor)

CN(C)C(=O)Oc1cccc([N+](C)(C)C)c1.[Br-] [NEOSTIGMINE BROMIDE]
Not Active: IC50 [1] | Ki [1] | IC50 [2] | IC50 [3] | Ki [3] | IC50 (Melanocortin receptor 3) | IC50 [4] | IC50 [5] | IC50 (Progesterone receptor)

NC(=O)c1cccnc1 [NIACINAMIDE]
Not Active: IC50 [1] | Ki [1] | IC50 [2] | IC50 [3] | Ki [3] | IC50 (Melanocortin receptor 3) | IC50 [4] | IC50 [5] | IC50 (Progesterone receptor)

CS(=O)(=O)Nc1ccc([N+](=O)[O-])cc1Oc1ccccc1 [NIMESULIDE]
Not Active: IC50 [1] | Ki [1] | IC50 [2] | IC50 [3] | Ki [3] | IC50 (Melanocortin receptor 3) | IC50 [4] | IC50 [5] | IC50 (Progesterone receptor)

CN1C(=O)CN=C(c2ccccc2)c2cc([N+](=O)[O-])ccc21 [NIMETAZEPAM]
Not Active: IC50 [1] | Ki [1] | IC50 [2] | IC50 [3] | Ki [3] | IC50 (Melanocortin receptor 3) | IC50 [4] | IC50 [5] | IC50 (Progesterone receptor)

COc1ccc2c(c1OC)C(=O)O[C@@H]2[C@H]1c2c(cc3c(c2OC)OCO3)CCN1C [NOSCAPINE]
Not Active: IC50 [1] | Ki [1] | IC50 [2] | IC50 [3] | Ki [3] | IC50 (Melanocortin receptor 3) | IC50 [4] | IC50 [5] | IC50 (Progesterone receptor)

C[C@@H]1O[C@@H](O[C@H]2C[C@@H](O)[C@]3(CO)[C@H]4[C@H](O)C[C@]5(C)[C@@H](C6=CC(=O)OC6)CC[C@]5(O)[C@@H]4CC[C@]3(O)C2)[C@H](O)[C@H](O)[C@H]1O [OUABAIN]
Not Active: IC50 [1] | Ki [1] | IC50 [2] | IC50 [3] | Ki [3] | IC50 (Melanocortin receptor 3) | IC50 [4] | IC50 [5] | IC50 (Progesterone receptor)

NC(=O)N1c2ccccc2CC(=O)c2ccccc21 [OXCARBAZEPINE]
Not Active: IC50 [1] | Ki [1] | IC50 [2] | IC50 [3] | Ki [3] | IC50 (Melanocortin receptor 3) | IC50 [4] | IC50 [5] | IC50 (Progesterone receptor)

COc1ccnc(C[S+]([O-])c2nc3ccc(OC(F)F)cc3[nH]2)c1OC (stereo not given) [PANTOPRAZOLE]
Not Active: IC50 [1] | Ki [1] | IC50 [2] | IC50 [3] | Ki [3] | IC50 (Melanocortin receptor 3) | IC50 [4] | IC50 [5] | IC50 (Progesterone receptor)

N=C(N)c1ccc(OCCCCCOc2ccc(C(=N)N)cc2)cc1 [PENTAMIDINE]
Not Active: IC50 [1] | Ki [1] | IC50 [2] | IC50 [3] | Ki [3] | IC50 (Melanocortin receptor 3) | IC50 [4] | IC50 [5] | IC50 (Progesterone receptor)
